Data on seven molecules can be found in patent US20230143604A1, “QW DOSING OF GIP RECEPTOR AGONIST PEPTIDE COMPOUNDS AND USES THEREOF” (TAKEDA PHARMACEUTICAL COMPANY LIMITED, priority 2020, published 2023).

Starred links: 1 amine or outer side, 2 acyl side, 3 side chain; linkers in the order of their positions; H or OH if unused. Non-standard residues stand in square brackets, D forms with d. Residues, ends and D or L forms follow the SMILES beside them. Groups on a side chain read outwards from the residue. *: point of attachment. C18 diacid = O=C(O)CCCCCCCCCCCCCCCCC(=O)*; C17 diacid = O=C(O)CCCCCCCCCCCCCCCC(=O)*; γGlu = O=C(O)[C@H](CCC(=O)[*:2])N[*:1]; NMeY = CN[C@@H](Cc1ccc(O)cc1)C(=O)O; AEEA = NCCOCCOCC(=O)O; Aib = CC(C)(N)C(=O)O

This series in a line: physchem. In outline:
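Solubility at pH 7.4 determined by stepwise addition of 200 mM phosphate buffer in 100 μL increments to 3 mg peptide, mixing briefly each time, until no insoluble material remained, then measured by liquid chromatography.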

The mark [1] stands for this setting: pH 7.4, aqueous buffer, pH 7.4 Phosphate Buffer - Solubility, 200 mM Phosphate buffer pH 7.4.
Where [2] appears, read: pH 7.4, solubility in phosphate buffer at pH 7.4, 200 mM phosphate buffer pH 7.4.

Broadly, the solubility is the dissolved amount per volume that the medium holds. The low end stands for a poorly soluble substance, the high end for a readily soluble substance.

In the case of `CC[C@H](C)[C@H](NC(=O)[C@H](CO)NC(=O)[C@H](Cc1ccc(O)cc1)NC(=O)[C@H](CC(=O)O)NC(=O)[C@H](CO)NC(=O)[C@@H](NC(=O)[C@H](Cc1ccccc1)NC(=O)[C@@H](NC(=O)CNC(=O)[C@H](CCC(=O)O)NC(=O)C(C)(C)NC(=O)[C@H](Cc1ccc(O)cc1)NC)[C@@H](C)O)[C@@H](C)CC)C(=O)N[C@@H](C)C(=O)N[C@@H](CC(C)C)C(=O)N[C@@H](CC(=O)O)C(=O)N[C@@H](CCCNC(=N)N)C(=O)N[C@@H](CCCCNC(=O)COCCOCCNC(=O)COCCOCCNC(=O)CC[C@H](NC(=O)CCCCCCCCCCCCCCCCC(=O)O)C(=O)O)C(=O)N[C@@H](Cc1c[nH]cn1)C(=O)N[C@@H](CCC(N)=O)C(=O)N[C@@H](CCC(N)=O)C(=O)N[C@@H](CC(N)=O)C(=O)N[C@@H](Cc1ccccc1)C(=O)N[C@H](C(=O)N[C@@H](CC(N)=O)C(=O)N[C@@H](Cc1c[nH]c2ccccc12)C(=O)N[C@@H](CC(C)C)C(=O)N[C@@H](CC(C)C)C(=O)N[C@@H](C)C(=O)N[C@@H](CCC(N)=O)C(=O)N[C@@H](CCCCN)C(=O)O)C(C)C` [Compound 246] (H-[NMeY][Aib]EGTFISDYSIALDRK([AEEA-AEEA-γGlu-C18 diacid])HQQNFVNWLLAQK-OH; C-terminus assumed), the solubility (pH 7.4, aqueous buffer) is at least 0.7 mg/mL. As to `CC[C@H](C)[C@H](NC(=O)[C@H](CO)NC(=O)[C@H](Cc1ccc(O)cc1)NC(=O)[C@H](CC(=O)O)NC(=O)[C@H](CO)NC(=O)[C@@H](NC(=O)[C@H](Cc1ccccc1)NC(=O)[C@@H](NC(=O)CNC(=O)[C@H](CCC(=O)O)NC(=O)C(C)(C)NC(=O)[C@H](Cc1ccc(O)cc1)NC)[C@@H](C)O)[C@@H](C)CC)C(=O)N[C@@H](C)C(=O)N[C@@H](CC(C)C)C(=O)N[C@@H](CC(=O)O)C(=O)N[C@@H](CCCNC(=N)N)C(=O)N[C@@H](CCCCNC(=O)CNC(=O)CNC(=O)CNC(=O)CNC(=O)CNC(=O)CC[C@H](NC(=O)CCCCCCCCCCCCCCCC(=O)O)C(=O)O)C(=O)N[C@@H](Cc1c[nH]cn1)C(=O)N[C@@H](CCC(N)=O)C(=O)NC(C)(C)C(=O)N[C@@H](CC(N)=O)C(=O)N[C@@H](Cc1ccccc1)C(=O)N[C@H](C(=O)N[C@@H](CC(N)=O)C(=O)N[C@@H](Cc1c[nH]c2ccccc12)C(=O)N[C@@H](CC(C)C)C(=O)N[C@@H](CC(C)C)C(=O)N[C@@H](C)C(=O)N[C@@H](CCC(N)=O)C(=O)N[C@@H](CCCNC(=N)N)C(=O)N1CCC[C@H]1C(=O)N[C@@H](CO)C(=O)N[C@@H](CO)C(=O)NCC(=O)N[C@@H](C)C(=O)N1CCC[C@H]1C(=O)N1CCC[C@H]1C(=O)N1CCC[C@H]1C(=O)N[C@@H](CO)C(=O)O)C(C)C` [Compound 20], the solubility under setting [1] was at least 15 mg/mL. On to `CC[C@H](C)[C@H](NC(=O)[C@H](CCCCN)NC(=O)[C@H](CC(=O)O)NC(=O)[C@H](CC(C)C)NC(=O)[C@H](C)NC(=O)[C@@H](NC(=O)[C@H](CO)NC(=O)[C@H](Cc1ccc(O)cc1)NC(=O)[C@H](CC(=O)O)NC(=O)[C@H](CO)NC(=O)[C@@H](NC(=O)[C@H](Cc1ccccc1)NC(=O)[C@@H](NC(=O)CNC(=O)[C@H](CCC(=O)O)NC(=O)C(C)(C)NC(=O)[C@@H](N)Cc1ccc(O)cc1)[C@@H](C)O)[C@@H](C)CC)[C@@H](C)CC)C(=O)N[C@@H](C)C(=O)N[C@@H](CCC(N)=O)C(=O)N[C@@H](CCC(N)=O)C(=O)N[C@@H](CCCCNC(=O)COCCOCCNC(=O)COCCOCCNC(=O)CC[C@H](NC(=O)CC[C@H](NC(=O)CCCCCCCCCCCCCCCC(=O)O)C(=O)O)C(=O)O)C(=O)N[C@@H](Cc1ccccc1)C(=O)N[C@H](C(=O)N[C@@H](CCC(=O)O)C(=O)N[C@@H](Cc1c[nH]c2ccccc12)C(=O)N[C@@H](CC(C)C)C(=O)N[C@@H](CC(C)C)C(=O)N[C@@H](C)C(=O)N[C@@H](CCC(N)=O)C(=O)N[C@@H](CCCNC(=N)N)C(=O)NCC(=O)O)C(C)C` [Compound 142] (H-Y[Aib]EGTFISDYSIALDKIAQQK([AEEA-AEEA-γGlu-γGlu-C17 diacid])FVEWLLAQRG-OH), for which the solubility reads like this: (pH 7.4) at least 15 mg/mL; (pH 7.4, aqueous buffer) at least 30 mg/mL. As to `CC[C@H](C)[C@H](NC(=O)[C@H](Cc1ccccc1)NC(=O)[C@@H](NC(=O)CNC(=O)[C@H](CCC(=O)O)NC(=O)C(C)(C)NC(=O)[C@H](Cc1ccc(O)cc1)NC)[C@@H](C)O)C(=O)N[C@@H](CO)C(=O)N[C@@H](CC(=O)O)C(=O)N[C@@H](Cc1ccc(O)cc1)C(=O)N[C@@H](CO)C(=O)N[C@H](C(=O)NC(C)(C)C(=O)N[C@@H](CC(C)C)C(=O)N[C@@H](CC(=O)O)C(=O)N[C@@H](CCCNC(=N)N)C(=O)NC(C)(C)C(=O)N[C@@H](C)C(=O)N[C@@H](CCC(N)=O)C(=O)NC(C)(C)C(=O)N[C@@H](CCCCNC(=O)COCCOCCNC(=O)COCCOCCNC(=O)CC[C@H](NC(=O)CCCCCCCCCCCCCCCCC(=O)O)C(=O)O)C(=O)N[C@@H](Cc1ccccc1)C(=O)N[C@H](C(=O)N[C@@H](CC(N)=O)C(=O)N[C@@H](Cc1c[nH]c2ccccc12)C(=O)N[C@@H](CC(C)C)C(=O)N[C@@H](CC(C)C)C(=O)N[C@@H](C)C(=O)N[C@@H](CCC(N)=O)C(=O)N[C@@H](CO)C(=O)N1CCC[C@H]1C(=O)N[C@@H](CO)C(=O)N[C@@H](CO)C(=O)NCC(=O)N[C@@H](C)C(=O)N1CCC[C@H]1C(=O)N1CCC[C@H]1C(=O)N1CCC[C@H]1C(=O)N[C@@H](CO)C(N)=O)C(C)C)[C@@H](C)CC` [Compound 91] (H-[NMeY][Aib]EGTFISDYSI[Aib]LDR[Aib]AQ[Aib]K([AEEA-AEEA-γGlu-C18 diacid])FVNWLLAQSPSSGAPPPS-NH2), the solubility runs as follows: under setting [1], at least 60 mg/mL; under setting [2], at least 15 mg/mL. As for `CC[C@H](C)[C@H](NC(=O)[C@H](CO)NC(=O)[C@H](Cc1ccc(O)cc1)NC(=O)[C@H](CC(=O)O)NC(=O)[C@H](CO)NC(=O)[C@@H](NC(=O)[C@H](Cc1ccccc1)NC(=O)[C@@H](NC(=O)CNC(=O)[C@H](CCC(=O)O)NC(=O)C(C)(C)NC(=O)[C@H](Cc1ccc(O)cc1)NC)[C@@H](C)O)[C@@H](C)CC)C(=O)N[C@@H](C)C(=O)N[C@@H](CC(C)C)C(=O)N[C@@H](CC(=O)O)C(=O)N[C@@H](CCCCN)C(=O)N[C@@H](C)C(=O)N[C@@H](C)C(=O)N[C@@H](CCC(N)=O)C(=O)NC(C)(C)C(=O)N[C@@H](CCCCNC(=O)COCCOCCNC(=O)COCCOCCNC(=O)CC[C@H](NC(=O)CC[C@H](NC(=O)CCCCCCCCCCCCCCCCC(=O)O)C(=O)O)C(=O)O)C(=O)N[C@@H](Cc1ccccc1)C(=O)N[C@H](C(=O)N[C@@H](CC(N)=O)C(=O)N[C@@H](Cc1c[nH]c2ccccc12)C(=O)N[C@@H](CC(C)C)C(=O)N[C@@H](CC(C)C)C(=O)N[C@@H](C)C(=O)N[C@@H](CCC(N)=O)C(=O)N[C@@H](CCCNC(=N)N)C(=O)NCC(=O)O)C(C)C` [Compound 176] (H-[NMeY][Aib]EGTFISDYSIALDKAAQ[Aib]K([AEEA-AEEA-γGlu-γGlu-C18 diacid])FVNWLLAQRG-OH), the solubility was at least 15 mg/mL (pH 7.4) and at least 30 mg/mL (pH 7.4, aqueous buffer). The molecule `CC[C@H](C)[C@H](NC(=O)[C@H](CO)NC(=O)[C@H](Cc1ccc(O)cc1)NC(=O)[C@H](CC(=O)O)NC(=O)[C@H](CO)NC(=O)[C@@H](NC(=O)[C@H](Cc1ccccc1)NC(=O)[C@@H](NC(=O)CNC(=O)[C@H](CCC(=O)O)NC(=O)C(C)(C)NC(=O)[C@H](Cc1ccc(O)cc1)NC)[C@@H](C)O)[C@@H](C)CC)C(=O)N[C@@H](C)C(=O)N[C@@H](CC(C)C)C(=O)N[C@@H](CO)C(=O)N[C@@H](CCCNC(=N)N)C(=O)N[C@@H](CCCCNC(=O)CNC(=O)CNC(=O)CNC(=O)CNC(=O)CNC(=O)CNC(=O)CCCCCCCCCCCCCCCCC(=O)O)C(=O)N[C@@H](Cc1c[nH]cn1)C(=O)N[C@@H](CCC(N)=O)C(=O)NC(C)(C)C(=O)N[C@@H](CC(N)=O)C(=O)N[C@@H](Cc1ccccc1)C(=O)N[C@H](C(=O)N[C@@H](CC(N)=O)C(=O)N[C@@H](Cc1c[nH]c2ccccc12)C(=O)N[C@@H](CC(C)C)C(=O)N[C@@H](CC(C)C)C(=O)N[C@@H](C)C(=O)N[C@@H](CCC(N)=O)C(=O)N[C@@H](CCCNC(=N)N)C(=O)N1CCC[C@H]1C(=O)N[C@@H](CO)C(=O)N[C@@H](CO)C(=O)NCC(=O)N[C@@H](C)C(=O)N1CCC[C@H]1C(=O)N1CCC[C@H]1C(=O)N1CCC[C@H]1C(=O)N[C@@H](CO)C(=O)N[C@@H](CCCNC(=N)N)C(N)=O)C(C)C` [Compound 279] displayed a solubility under setting [1] of under 15 mg/mL. `CC[C@H](C)[C@H](NC(=O)[C@H](Cc1ccccc1)NC(=O)[C@@H](NC(=O)CNC(=O)[C@H](CCC(=O)O)NC(=O)C(C)(C)NC(=O)[C@H](Cc1ccc(O)cc1)NC)[C@@H](C)O)C(=O)N[C@@H](CO)C(=O)N[C@@H](CC(=O)O)C(=O)N[C@@H](Cc1ccc(O)cc1)C(=O)N[C@@H](CO)C(=O)N[C@H](C(=O)NC(C)(C)C(=O)N[C@@H](CC(C)C)C(=O)N[C@@H](CC(=O)O)C(=O)N[C@@H](CCCNC(=N)N)C(=O)NC(C)(C)C(=O)N[C@@H](CCCCNC(=O)COCCOCCNC(=O)COCCOCCNC(=O)CC[C@H](NC(=O)CC[C@H](NC(=O)CCCCCCCCCCCCCCCCC(=O)O)C(=O)O)C(=O)O)C(=O)N[C@@H](CCC(N)=O)C(=O)NC(C)(C)C(=O)N[C@@H](CC(N)=O)C(=O)N[C@@H](Cc1ccccc1)C(=O)N[C@H](C(=O)N[C@@H](CC(N)=O)C(=O)N[C@@H](Cc1c[nH]c2ccccc12)C(=O)N[C@@H](CC(C)C)C(=O)N[C@@H](CC(C)C)C(=O)N[C@@H](C)C(=O)N[C@@H](CCC(N)=O)C(=O)N[C@@H](CO)C(=O)N1CCC[C@H]1C(=O)N[C@@H](CO)C(=O)N[C@@H](CO)C(=O)NCC(=O)N[C@@H](C)C(=O)N1CCC[C@H]1C(=O)N1CCC[C@H]1C(=O)N1CCC[C@H]1C(=O)N[C@@H](CO)C(N)=O)C(C)C)[C@@H](C)CC` [Compound 100] (H-[NMeY][Aib]EGTFISDYSI[Aib]LDR[Aib]K([AEEA-AEEA-γGlu-γGlu-C18 diacid])Q[Aib]NFVNWLLAQSPSSGAPPPS-NH2): the solubility reads like this: under setting [1], at least 60 mg/mL; under setting [2], at least 15 mg/mL.
